Assay results taken from PubChem BioAssay (NCI).
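Compound exposure: 48 hours, 5 concentrations, 96-well plates. TGI is the concentration that stops growth completely.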

System: DU-145 prostate
Test: NCI-60 cell line screen, 48 h

## O=c1c2cccnc2oc2c(Cl)cc(-c3nn[nH]n3)cc12
  TGI: > 100 µM
